Test [1] deals with HCov OC43. The test is described as follows: HCoV OC43 cytopathic effect (CPE) assay, CellTiter Glo. Type of test: cell-based, human coronavirus (HCov) OC43. The note with it: Betacoronavirus 1, OC43, read-out: OC43 IC50 (uM) MEDIAN, median.
Test [2] has as its target 229E Mpro (Human coronavirus 229E, UniProt P0C6X1). The test is described as follows: 229E Mpro enzymatic assay (standard methods, SARS-CoV2 Mpro assay given as exemplary). Type of test: biochemical, human coronavirus (HCov) 229E. Summed up: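 IC50 for 229E Mpro by standard methods; exemplary SARS-CoV-2 protocol used C-His6-tagged Mpro from E. coli, 25 nM enzyme, 25 μM substrate (Km 13.5 μM), in Tris-HCl pH 7.3, NaCl, EDTA, TCEP, 0.1% BSA. Inhibition normalised to no-compound and full-effect controls; four-parameter fit.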

Test [3] deals with COVID-19 (nCoV-2019, SARS-CoV2) Mpro (Severe acute respiratory syndrome coronavirus 2, UniProt P0DTD1). The test is described as follows: COVID-19 (nCoV-2019, SARS-CoV2) Mpro enzymatic assay. In kind it is biochemical. The note with it: 25 μM substrate.
The mark [4] stands for this setting: 25 nM Mpro, read-out: COVID-19 Mpro IC50.

pEC50, pIC50: −log10 of the molar value. Like-named read-outs stand apart in the source and are kept apart here. Bounds are passed on as bounds.

Chain of 229E Mpro (P0C6X1 2966-3267): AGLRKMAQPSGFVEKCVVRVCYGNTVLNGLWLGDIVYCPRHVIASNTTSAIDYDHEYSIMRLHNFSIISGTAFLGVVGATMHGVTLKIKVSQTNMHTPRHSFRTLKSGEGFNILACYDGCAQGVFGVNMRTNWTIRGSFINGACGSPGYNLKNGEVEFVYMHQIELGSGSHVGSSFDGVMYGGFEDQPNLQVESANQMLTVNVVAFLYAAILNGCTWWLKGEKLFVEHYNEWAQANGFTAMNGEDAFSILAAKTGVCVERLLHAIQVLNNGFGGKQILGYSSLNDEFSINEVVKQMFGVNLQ

For the compound `CC(C)(C)OC(=O)NC1CCN(C(=O)C(c2cccnc2)N(C(=O)[C@H]2CCCN2C#N)c2ccc(C(C)(C)C)cc2)CC1` (stereo partly drawn) [Compound 966b], the IC50 in test [1] was 10 to 30 µM. In addition, in test [2] (229E Mpro EC50), the pEC50 is 5.00 to 5.70. Further, the pIC50 in test [3] (setting [4]) was 4.52 to 5.00.
With `CN(C)C1CN(C(=O)C(c2cccnc2)N(C(=O)[C@H]2CCCN2C#N)c2ccc(C(C)(C)C)cc2)C1` (stereo partly drawn) [Compound 975, (2R)—N-(4-(tert-butyl)phenyl)-1-cyano-N-(2-(3-(dimethylamino)azetidin-1-yl)-2-oxo-1-(pyridin-3-yl)ethyl)pyrrolidine-2-carboxamide], the IC50 in test [1] lay in the range of 10 to 30 µM. In test [2] (229E Mpro EC50), this compound had a pEC50 of 5.00 to 5.70. For the same compound, the pIC50 in test [3] (setting [4]) is 4.52 to 5.00.
In the same order, the values of `Cc1ccncc1C(C(=O)NC1CCC(F)(F)CC1)N(C(=O)[C@H]1C[C@@](C)(O)CN1C#N)c1ccc(S(F)(F)(F)(F)F)cc1` (stereo partly drawn) [Compound 993c, (2R,4R)-1-cyano-N-[2-[(4,4-difluorocyclohexyl)amino]-1-(4-methyl-3-pyridyl)-2-oxo-ethyl]-4-hydroxy-4-methyl-N-[4-(pentafluoro-λ6-sulfanyl)phenyl]pyrrolidine-2-carboxamide] are 2 to 10 µM, over 5.70 and over 5.70.
For `Cc1ccnc(C)c1C(C(=O)NC1CCC(F)(F)CC1)N(C(=O)[C@H]1C[C@@](C)(O)CN1C#N)c1ccc(S(F)(F)(F)(F)F)cc1` (stereo partly drawn) [Compound 997c, (2R,4R)-1-cyano-N-[2-[(4,4-difluorocyclohexyl)amino]-1-(2,4-dimethyl-3-pyridyl)-2-oxo-ethyl]-4-hydroxy-4-methyl-N-[4-(pentafluoro-λ^6-sulfanyl)phenyl]pyrrolidine-2-carboxamide], in test [1], the IC50 lay within 2 to 10 µM. The pEC50 in test [2] (229E Mpro EC50) was over 5.70. For the same compound, the pIC50 in test [3] (setting [4]) is 4.52 to 5.00.
Take `CC(C(=O)NC1CCC(F)(F)CC1)(c1cccnc1)N(C(=O)[C@H]1C[C@@](C)(O)CN1C#N)c1ccc(S(F)(F)(F)(F)F)cc1` (stereo partly drawn) [Compound 1077, (2R,4R)-1-cyano-N-[2-[(4,4-difluorocyclohexyl)amino]-1-methyl-2-oxo-1-(3-pyridyl)ethyl]-4-hydroxy-4-methyl-N-[4-(pentafluoro-λ^6-sulfanyl)phenyl]pyrrolidine-2-carboxamide]: the IC50 in test [1] was under 2 µM. The compound further gave a pEC50 in test [2] (229E Mpro EC50) of over 5.70. Moreover, in test [3] (setting [4]), the pIC50 was over 5.70.
For `N#CN1C[C@H]2C[C@H]2[C@@H]1C(=O)N(c1ccc(S(F)(F)(F)(F)F)cc1)C(C(=O)NC1CCC(F)(F)CC1)c1cncc(F)c1` (stereo partly drawn) [Compound 1095b, (1R,2R,5S)-3-cyano-N-[2-[(4,4-difluorocyclohexyl)amino]-1-(5-fluoro-3-pyridyl)-2-oxo-ethyl]-N-[4-(pentafluoro-λ^6-sulfanyl)phenyl]-3-azabicyclo[3.1.0]hexane-2-carboxamide], the IC50 in test [1] is under 2 µM. The same compound showed a pEC50 in test [2] (229E Mpro EC50) of over 5.70. For the same compound, in test [3] (setting [4]), the pIC50 was over 5.70.
`N#CN1C2CCC1(C(=O)N(c1ccc(S(F)(F)(F)(F)F)cc1)C(C(=O)NC1CCC(F)(F)CC1)c1cncc(F)c1)CC2` (stereo not drawn) [Compound 1101, 7-cyano-N-[2-[(4,4-difluorocyclohexyl)amino]-1-(5-fluoro-3-pyridyl)-2-oxo-ethyl]-N-[4-(pentafluoro-λ6-sulfanyl)phenyl]-7-azabicyclo[2.2.1]heptane-1-carboxamide]: the IC50 in test [1] is over 30 µM. Also, the pEC50 in test [2] (read-out: 229E Mpro EC50) was 5.00 to 5.70. For the same compound, the pIC50 in test [3] (COVID-19 Mpro IC50, 25 nM Mpro) is under 4.52.
On to `O=C1CCCCC1C(=O)N(c1ccc(S(F)(F)(F)(F)F)cc1)C(C(=O)NC1CCC(F)(F)CC1)c1cncc(F)c1` (stereo not drawn) [Compound 1114], for which the IC50 in test [1] was over 30 µM. In test [2] (229E Mpro EC50), this compound gave a pEC50 of 5.00 to 5.70. In test [3] (setting [4]), the pIC50 is 4.52 to 5.00.
For the compound `CO[C@@H]1C[C@H](C(=O)N(c2ccc(S(F)(F)(F)(F)F)cc2)C(C(=O)NC(C)C2CCCCN2)c2cccnc2)N(C#N)C1` (stereo partly drawn) [Compound 1123, (2R,4R)-1-cyano-4-methoxy-N-[2-oxo-2-[1-(2-piperidyl)ethylamino]-1-(3-pyridyl)ethyl]-N-[4-(pentafluoro-λ^6-sulfanyl)phenyl]pyrrolidine-2-carboxamide], the IC50 in test [1] was under 2 µM. In test [2] (229E Mpro EC50), the pEC50 is over 5.70. The pIC50 in test [3] (setting [4]) was over 5.70.
With `O=C(NC1CCC(F)(F)CC1)C(c1cncc(F)c1)N(C(=O)C1CCC1(O)O)c1ccc(S(F)(F)(F)(F)F)cc1` (stereo not drawn) [Compound 1133a, N-[2-[(4,4-difluorocyclohexyl)amino]-1-(5-fluoro-3-pyridyl)-2-oxo-ethyl]-2,2-dihydroxy-N-[4-(pentafluoro-λ6-sulfanyl)phenyl]cyclobutanecarboxamide], the IC50 in test [1] is over 30 µM. Moreover, the pEC50 in test [2] (229E Mpro EC50) is under 4.52. For the same compound, the pIC50 in test [3] (setting [4]) was under 4.52.
Regarding `COC1CN(C#N)C(C)(C(=O)N(c2ccc(S(F)(F)(F)(F)F)cc2)C(C(=O)NC2CCC(F)(F)CC2)c2cncc(F)c2)C1` (stereo not drawn) [Compound 1135b, 1-cyano-N-[2-[(4,4-difluorocyclohexyl)amino]-1-(5-fluoro-3-pyridyl)-2-oxo-ethyl]-4-methoxy-2-methyl-N-[4-(pentafluoro-λ^6-sulfanyl)phenyl]pyrrolidine-2-carboxamide], the IC50 in test [1] is over 30 µM. Further, the pEC50 in test [2] (229E Mpro EC50) was under 4.52. Besides, the pIC50 in test [3] (setting [4]) was under 4.52.
For the compound `N#CN1CC2C[C@@]1(C(=O)N(c1ccc(S(F)(F)(F)(F)F)cc1)C(C(=O)NC1CCC(F)(F)CC1)c1cncc(F)c1)CO2` (stereo partly drawn) [Compound 1136b], in test [1], the IC50 is over 30 µM. In addition, the pEC50 in test [2] (229E Mpro EC50) is 5.00 to 5.70. For the same compound, the pIC50 in test [3] (setting [4]) was 5.00 to 5.70.
On to `CO[C@@H]1C[C@H](C(=O)N(c2ccc(S(F)(F)(F)(F)F)cc2)C(C(=O)N2CCN(C(=O)OC(C)(C)C)CC2)c2cccnc2)N(C#N)C1` (stereo partly drawn) [Compound 1149b, tert-butyl-4-[2-[N-[(2R,4R)-1-cyano-4-methoxy-pyrrolidine-2-carbonyl]-4-(pentafluoro-λ6-sulfanyl)anilino]-2-(3-pyridyl)acetyl]piperazine-1-carboxylate], for which the IC50 in test [1] was under 2 µM. Besides, the pEC50 in test [2] (229E Mpro EC50) is over 5.70. Besides, the pIC50 in test [3] (setting [4]) is over 5.70.
Take `C[C@@]1(O)C[C@H](C(=O)N(c2ccc(S(F)(F)(F)(F)F)cc2)C(C(=O)NC2CCC(F)(F)CC2)c2cccnc2F)N(C#N)C1` (stereo partly drawn) [Compound 1158, (2R,4R)-1-cyano-N-[2-[(4,4-difluorocyclohexyl)amino]-1-(2-fluoro-3-pyridyl)-2-oxo-ethyl]-4-hydroxy-4-methyl-N-[4-(pentafluoro-λ6-sulfanyl)phenyl]pyrrolidine-2-carboxamide]: the IC50 in test [1] was under 2 µM. In addition, the pEC50 in test [2] (229E Mpro EC50) was over 5.70. Further, the pIC50 in test [3] (setting [4]) was over 5.70.
With `N#CN1CC(=O)NCC1C(=O)N(c1ccc(S(F)(F)(F)(F)F)cc1)C(C(=O)NC1CCC(F)(F)CC1)c1cncc(F)c1` (stereo not drawn) [Compound 1160, 1-cyano-N-[2-[(4,4-difluorocyclohexyl)amino]-1-(5-fluoro-3-pyridyl)-2-oxo-ethyl]-5-oxo-N-[4-(pentafluoro-λ^6-sulfanyl)phenyl]piperazine-2-carboxamide], in test [1], the IC50 was under 2 µM. This compound had a pEC50 in test [2] (229E Mpro EC50) of over 5.70. For the same compound, the negative logarithm of the IC50 (pIC50) in test [3] (setting [4]) is over 5.70.
As for `CN1CC(C(=O)N(c2ccc(S(F)(F)(F)(F)F)cc2)C(C(=O)NC2CCC(F)(F)CC2)c2cncc(F)c2)N(C#N)CC1=O` (stereo not drawn) [Compound 1161, 1-cyano-N-[2-[(4,4-difluorocyclohexyl)amino]-1-(5-fluoro-3-pyridyl)-2-oxo-ethyl]-4-methyl-5-oxo-N-[4-(pentafluoro-λ^6-sulfanyl)phenyl]piperazine-2-carboxamide], the IC50 in test [1] is under 2 µM. The pEC50 in test [2] (229E Mpro EC50) was over 5.70. The pIC50 in test [3] (setting [4]) is over 5.70.
With `CO[C@@H]1C[C@H](C(=O)N(c2ccc(S(F)(F)(F)(F)F)cc2)C(C(=O)N2CCC3(COC3)C2)c2cccnc2)N(C#N)C1` (stereo partly drawn) [Compound 1174, (2R,4R)-1-cyano-4-methoxy-N-[2-(2-oxa-7-azaspiro[3.4]octan-7-yl)-2-oxo-1-(3-pyridyl)ethyl]-N-[4-(pentafluoro-λ^6-sulfanyl)phenyl]pyrrolidine-2-carboxamide], the IC50 in test [1] is under 2 µM. For the same compound, in test [2] (229E Mpro EC50), the pEC50 was over 5.70. For the same compound, the pIC50 in test [3] (setting [4]) was 5.00 to 5.70.
With `CO[C@@H]1C[C@H](C(=O)N(c2ccc(S(F)(F)(F)(F)F)cc2)C(C(=O)NCC(=O)N2CCCC2)c2cccnc2)N(C#N)C1` (stereo partly drawn) [Compound 1182, (2R,4R)-1-cyano-4-methoxy-N-[2-oxo-2-[(2-oxo-2-pyrrolidin-1-yl-ethyl)amino]-1-(3-pyridyl)ethyl]-N-[4-(pentafluoro-λ6-sulfanyl)phenyl]pyrrolidine-2-carboxamide], the IC50 in test [1] is under 2 µM. In test [2] (229E Mpro EC50), this compound had a pEC50 of over 5.70. Also, in test [3] (setting [4]), the pIC50 was over 5.70.
As to `CO[C@@H]1C[C@H](C(=O)N(c2ccc(S(F)(F)(F)(F)F)cc2)C(C(=O)N2CCN(C)C(=O)C2)c2cccnc2)N(C#N)C1` (stereo partly drawn) [Compound 1188], the IC50 in test [1] is under 2 µM. In addition, in test [2] (229E Mpro EC50), the pEC50 was over 5.70. Further, the pIC50 in test [3] (setting [4]) was 5.00 to 5.70.
Regarding `CO[C@@H]1C[C@H](C(=O)N(c2ccc(S(F)(F)(F)(F)F)cc2)C(C(=O)NC2CCC(F)(F)CC2)c2cnccc2C#N)N(C#N)C1` (stereo partly drawn) [Compound 1200, (2R,4R)-1-cyano-N-[l-(4-cyano-3-pyridyl)-2-[(4,4-difluorocyclohexyl)amino]-2-oxo-ethyl]-4-methoxy-N-[4-(pentafluoro-λ6-sulfanyl)phenyl]pyrrolidine-2-carboxamide], the IC50 in test [1] was under 2 µM. In addition, the pEC50 in test [2] (229E Mpro EC50) is over 5.70. In addition, in test [3] (setting [4]), the pIC50 was over 5.70.

For the origin of these results see US20220380347A1, “INHIBITORS OF CYSTEINE PROTEASES AND METHODS OF USE THEREOF” (Pardes Biosciences, Inc., priority 2020, published 2022).
